Usually Emax stands for the maximal effect, on the per cent scale that the assay sets.

What all share (assay): cAMP accumulation assay (LANCE Ultra cAMP kit), GIPR WT, mutant or modified constructs
Type in all cases: cell-based
Holding throughout (set-up): acylated tirzepatide to the full-length or modified; Flag; expressed in transfected cells; host or cells: HEK293T
(Cyclic AMP is a second messenger, typically raised through Gs and lowered through Gi signalling.)

Assay [1] concerns the target T1, GIPR (Homo sapiens, UniProt P48546, D191A).
T1 sequence (P48546 22-466 D191A): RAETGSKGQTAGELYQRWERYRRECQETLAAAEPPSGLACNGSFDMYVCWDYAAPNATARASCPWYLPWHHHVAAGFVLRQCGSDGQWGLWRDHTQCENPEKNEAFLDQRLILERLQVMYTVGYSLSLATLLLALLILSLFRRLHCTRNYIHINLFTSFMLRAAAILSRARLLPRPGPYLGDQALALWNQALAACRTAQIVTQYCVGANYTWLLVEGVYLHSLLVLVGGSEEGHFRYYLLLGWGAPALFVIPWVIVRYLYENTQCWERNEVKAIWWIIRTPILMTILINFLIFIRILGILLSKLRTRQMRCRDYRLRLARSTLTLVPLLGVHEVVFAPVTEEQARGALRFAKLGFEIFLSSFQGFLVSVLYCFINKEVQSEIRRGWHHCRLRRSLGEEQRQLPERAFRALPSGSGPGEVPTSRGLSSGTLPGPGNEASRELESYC
Conditions: HEK-293T, GIPR D191A; HEK293T. In outline: (§1)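 HEK293T cells transiently transfected with human GIPR WT or mutant constructs (pcDNA3.1), used after 24 h. The cells were stimulated with peptide agonists for 40 min at RT in HBSS with 5 mM HEPES, 0.1% BSA or casein, and 0.5 mM IBMX. cAMP was read by LANCE Ultra TR-FRET (Eu-cAMP tracer/ULight anti-cAMP, 1 h RT, 620/650 nm).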

Assay [2] deals with T2, GIPR (Homo sapiens, UniProt P48546, R196A).
T2 sequence (P48546 22-466 R196A): T1 sequence (P48546 22-466 D191A) with A170D, R175A
The following applies: GIPR R196A, HEK293T. A digest of the protocol:
as §1

Assay [3] has as its target T3, GIPR (Homo sapiens, UniProt P48546, F127A).
T3 sequence (P48546 22-466 F127A): T1 sequence (P48546 22-466 D191A) with F106A, A170D
The following applies: GIPR F127A, HEK293T. In outline:
as §1

The mark [4] stands for this setting: read-out: cAMP pEC50 (converted).

Each structure is given as a SMILES string. Changes are numbered by the printed parent chain.

For `CCCCCCCCCCCCCCCC(=O)N[C@@H](CCC(=O)NCCCC[C@H](NC(=O)[C@H](CC(=O)O)NC(=O)[C@H](CO)NC(=O)[C@@H](NC(=O)[C@H](Cc1ccccc1)NC(=O)[C@@H](NC(=O)CNC(=O)[C@H](CCC(N)=O)NC(=O)C(C)(C)NC(=O)[C@@H](N)Cc1c[nH]cn1)[C@@H](C)O)[C@@H](C)O)C(=O)N[C@@H](CO)C(=O)N[C@@H](CCCCN)C(=O)N[C@@H](Cc1ccc(O)cc1)C(=O)N[C@@H](CC(C)C)C(=O)N[C@@H](CC(=O)O)C(=O)N[C@@H](CCC(=O)O)C(=O)N[C@@H](CCCNC(=N)N)C(=O)N[C@@H](C)C(=O)N[C@@H](C)C(=O)N[C@@H](CCC(N)=O)C(=O)N[C@@H](CC(=O)O)C(=O)N[C@@H](Cc1ccccc1)C(=O)N[C@H](C(=O)N[C@@H](CCC(N)=O)C(=O)N[C@@H](Cc1c[nH]c2ccccc12)C(=O)N[C@@H](CC(C)C)C(=O)N[C@@H](CC(C)C)C(=O)N[C@@H](CC(=O)O)C(=O)NCC(=O)NCC(=O)N1CCC[C@H]1C(=O)N[C@@H](CO)C(=O)N[C@@H](CO)C(=O)NCC(=O)N[C@@H](C)C(=O)N1CCC[C@H]1C(=O)N1CCC[C@H]1C(=O)N1CCC[C@H]1C(=O)N[C@@H](CO)C(N)=O)C(C)C)C(=O)O` [Peptide 20], the Emax worked out at 51.7 ± 5.96% at GIPR [1], 98.5 ± 1.43% on GIPR [2] (HEK-293T) and 100 ± 1.64% at GIPR [3] (HEK-293T). For the same compound, the EC50 was 0.0468 nM on GIPR [2] (setting [4]) and 0.00457 nM on GIPR [3] (setting [4]).

The record behind these values is paper PMC8881610 (Nature Communications, 2022).
